Laboratory results from US5871779A, “Treatment of arthropathies with vanadate compounds or analogues thereof” (Mount Sinai Hospital Corporation, priority 1996, dated 1999).
“And” between values parts separate entries of the source, which are not always exact repeats. Equal entries are not always repeated.

How the values were obtained:
[1] = body weights of mice, BMOV solution and beads (Example 19); assay type: in vivo
Protocol: On day 6 the mice were divided into 6 groups as follows: group 1, empty control; group 3, tumor control; group 3, injected subcutaneously with 0.25 mg/100μl BMOV, twice a day; group 4, injected IP with 20 mg palla beads containing 5 mg of BMOV; group 5, injected IP with 10 mg of BMOV beads on day 6 and day 9 respectively and; group 6, injected intramuscularly with 10 mg of BMOV beads on day 6 and day 9. On day 16, the mice were sacrificed and tumors were dissected.
The body weights of mice in control and treated groups, and the tumor weights from control and treated mice, are shown in Tables 5 and 6 respectively.

jun = jun / c-jun mRNA expression in chondrocytes (Northern blot); assay type: cell-based, bovine; settings: 100 μM
Text: The cytokine interleukin 1 (IL 1) has been used to identify the intermediate second messengers which regulate the expression of fos and jun.
Although IL 1 stimulated superoxide production, it was not known whether IL 1 induced fos and jun expression was dependent on the production of superoxides. In order to elucidate this possibility, the effect of DPI on fos and jun mRNA levels induced by IL 1 was investigated. RNA from chondrocytes treated with IL 1 in the presence and absence of DPI were analyzed by Northern blot analysis using either fos or collagenase cDNA probes. […] Similar data has been obtained for IL 1 induced jun expression. Furthermore, inhibition of fos and jun expression by DPI was sufficient to suppress IL 1 induced and constitutive collagenase expression.
The effect of orthovanadate and N-acetylcysteine on fos, jun and collagenase expression were examined. Bovine articular chondrocytes were isolated and plated as previously described (Kandel R. A. et al. Biochim. Biophys. Acta. 1053, 130-134, 1990). In order to determine the effect of orthovanadate on IL 1 and PMA (phorbol ester) induced responses, chondrocytes were incubated with orthovanadate (100 μM) for 2 hours before stimulation with IL 1 (10 ng/ml) or PMA ([…]). Collagenase production was determined by incubating chondrocytes for 24 hours with IL 1 or PMA and the cell conditioned medium was assayed for collagenase activity using an ELISA procedure as described previously (Kandel et al. supra). PLA2 activity was measured by incorporating ^3 H-arachidonic acid (^3 H-AA) into the cells and then incubating the cells with medium containing 1 mg/ml BSA, either alone or in the presence of IL 1 or PMA, for 10 min. as previously described (Conquer, J. A. […], Biochim. Biophys. Acta. 1134, 1-6). The amount of ^3 H-AA liberated into the supernatant was determined. […] The supernatant was analyzed by RIA using an antibody specific for PGE2 (Dr. S. A. Jones, Mount Sinai Hospital, Toronto, Canada). […]

MDAY-D2 tumor = MDAY-D2 tumor growth in vivo, orthovanadate, vanadyl sulphate, vanadyl hydroperoxide (Example 6B); parameters: species or system mice
Text: In order to examine the ability of vanadyl compounds to reduce tumor formation, growth and metastases, a specific animal model which allows investigation of all of these processes in the same animal was chosen. This model involves the injection of a metastatic haematopoietic cell line, MDAY-D2, into mice subcutaneously. These cells form a tumor at the site of injection and its size can be easily determined. In addition, these cells metastasize to the liver and metastases can be detected histologically after day 17 to 19. This model provides a very sensitive and reproducible approach to investigate the effect of vanadyl compounds on tumor growth and metastases.
In a separate experiment using the same animal model, the effect of orthovanadate, vanadyl sulphate and vanadyl hydroperoxide administration on tumor growth in vivo was examined. On Day 1, 20 mice were injected with 2×10^5 MDAY-D2 cell subcutaneously. The mice were divided into four groups of five mice. At day 5, the animals were injected subcutaneously with 50 μl of water alone or containing 10 mg/ml of orthovanadate, 10 mg/ml of vanadyl sulphate, or 10 mg/ml of vanadyl hydroperoxide. This treatment was continued daily for 16 days. At day 21, the mice were sacrificed and the tumors dissected and weighed.

HTB14 cells = assay: viability of HTB14 cells; assay type: cell-based, human; settings: 0-50 μM, 48 hours
Protocol: Fos and jun activity are also required for cellular proliferation in many tumor cell lines. Accordingly, the effect of orthovanadate on adherent cells and cell suspensions were examined. MDAY-D2 (a mouse lymphoid cell line grown in suspension) and HTB14 cells (an adherent human primary astrocytoma cell line) were incubated in media containing 0-50 μM orthovanadate for 48 hours. The cells were harvested and the number of viable cells determined.

PGE2 = PGE2 production by chondrocytes (RIA); assay type: cell-based, bovine; settings: 100 μM
Protocol: The effect of orthovanadate and N-acetylcysteine on fos, jun and collagenase expression were examined. Bovine articular chondrocytes were isolated and plated as previously described (Kandel R. A. et al. Biochim. Biophys. Acta. 1053, 130-134, 1990). In order to determine the effect of orthovanadate on IL 1 and PMA (phorbol ester) induced responses, chondrocytes were incubated with orthovanadate (100 μM) for 2 hours before stimulation with IL 1 (10 ng/ml) or PMA ([…]). Collagenase production was determined by incubating chondrocytes for 24 hours with IL 1 or PMA and the cell conditioned medium was assayed for collagenase activity using an ELISA procedure as described previously (Kandel et al. supra). PLA2 activity was measured by incorporating ^3 H-arachidonic acid (^3 H-AA) into the cells and then incubating the cells with medium containing 1 mg/ml BSA, either alone or in the presence of IL 1 or PMA, for 10 min. as previously described (Conquer, J. A. […], Biochim. Biophys. Acta. 1134, 1-6). The amount of ^3 H-AA liberated into the supernatant was determined. To measure PGE2 production, chondrocytes were incubated for 6 hours in Ham's F12 medium, either alone or with IL 1 or PMA. The supernatant was analyzed by RIA using an antibody specific for PGE2 (Dr. S. A. Jones, Mount Sinai Hospital, Toronto, Canada). […]

MCF7 (ADR) = assay: MTT cytotoxicity assay, MCF7 (ADR); assay type: cell-based, human; settings: MCF7 (ADR), 72 hours; read-out: IC50 Value
Protocol: The relative cytotoxicity of various compounds on tumor cell lines was investigated as follows. Cytotoxicity was measured by the MTT microculture tetrazolium colorimetric assay for all cell lines. The relative cytotoxicity of Na3 VO4 and VOSO4 was investigated using the following tumor cell lines: P388(WT) murine leukemia, P388 (ADR) murine leukemia, Lewis murine lung, MCF7 (WT) human breast, […] human lung, K562 human erythroleukemia, A431 human epidermal, LS180 human colon and SK-OV-3 human ovarian. The relative cytotoxicity of doxorubicin, Na3 VO4 and VOSO4 was investigated using the following tumor cell lines: P388(WT) murine leukemia, P388 (ADR) murine leukemia, MCF7(WT) human breast and MCF7 (ADR) human breast. The relative cytotoxicity of BMOV, BEOV and naglivan was investigated using the following tumor cell lines: P388(WT) murine leukemia, P388 (ADR) murine leukemia, Lewis murine lung, H460 human lung, K562 human erythroleukemia, and SK-OV-3 human ovarian.
The cells were plated (number of cells/well was different from cell line to cell depending on the dividing rate) in a 96-well microculture plate 24 hours prior to the delivery of the vanadium compounds. Serial concentrations of solutions of the test compounds (0.05-100 μM) were delivered to the corresponding wells. A blank column (without cells) and a control column (with cells without vanadium) were left. The cells were incubated for 72 hours continuously. An MTT solution was added to each well after this incubation period and the cells were incubated for 4 more hours for the completion of the dyeing process. The medium was removed find DMSO was added to each well. The absorbance of each well was read with a Titertek Multiskan (310C) spectrophotometer at 570 nm. The percentage of the absorbance of each vanadium concentration relative to the control calculated and the value of the 50% growth inhibition concentration (IC50) was obtained from the % control versus concentration plot. Each assay was repeated three times and the reported IC50 values were the mean of these three runs.

SMILES | Body weight, Average ([1]; BMOV solution 0.25 mg × 1) | Body weight ([1]; BMOV solution 0.25 mg × 1, individual mice) | inhibition of IL 1, PMA and AA induced c-jun expression (jun) | detectable tumors (MDAY-D2 tumor; day 21) | animal deaths (MDAY-D2 tumor; groups of five, 10 mg/ml, 50 μl daily s.c.) | efficacy in reducing tumor growth (MDAY-D2 tumor; mouse, in vivo) | toxicity to HTB14 cells (HTB14 cells) | inhibition of IL 1 or PMA induced PGE2 production (PGE2) | IC50 (MCF7 (ADR)) [µM]
Cc1occc(=O)c1[O-].Cc1occc(=O)c1[O-].[O]=[V+2] [BMOV, bis(methylmaltolato) oxovanadium (IV)] | 17.87 | 18.8 and 17.8 and 18.4 and 17.3 | – | – | – | – | – | – | –
[Na+].[Na+].[Na+].[O]=[V]([O-])([O-])[O-] [orthovanadate, sodium orthovanadate] | – | – | completely inhibited | one mouse did not have detectable tumors | One animal died | most efficacy | toxic | did not inhibit | 30.7
